Numbered stars: 1 amine (or outer) side, 2 acyl side, 3 side chain; on linkers, the order of the positions; unused ones are H or OH. Square brackets hold non-standard residues; d marks the D form. Peptide text beside a SMILES is read from it. * marks the point of attachment. Phe(3,4-Cl2) = N[C@@H](Cc1ccc(Cl)c(Cl)c1)C(=O)O; X1 = O=C(C(Cc1ccc2[nH]c3ccccc3c2c1)N[*:1])[*:2]; X2 = O=C([C@H](Cc1cccc2[nH]cnc12)N[*:1])[*:2]; X7 = O=C([C@H](Cc1cccc2[nH]ncc12)N[*:1])[*:2]; X8 = Nc1nc(C[C@H](N[*:1])C(=O)[*:2])c[nH]1; X5 = O=C(C(Cc1cccc2[nH]ccc12)N[*:1])[*:2]; Oic = O=C(O)[C@@H]1C[C@@H]2CCCC[C@@H]2N1; Phe(4-F) = N[C@@H](Cc1ccc(F)cc1)C(=O)O; Gly(cPent) = N[C@H](C(=O)O)C1CCCC1; Lys(Me2) = CN(C)CCCC[C@H](N)C(=O)O; hCit = NC(=O)NCCCC[C@H](N)C(=O)O; Tic = O=C(O)[C@@H]1Cc2ccccc2CN1; Cit = NC(=O)NCCC[C@H](N)C(=O)O; Chg = N[C@H](C(=O)O)C1CCCCC1; NHPhenethyl = c1ccc(CCN*)cc1; Tle = CC(C)(C)[C@H](N)C(=O)O; X3 = c1cc2cc(CCN*)ccc2[nH]1; X4 = c1cc(CCN*)c2cc[nH]c2c1; X6 = c1ccc2[nH]c(CCN*)cc2c1; Pip = O=C(O)[C@@H]1CCCCN1; Morpholide = C1CN(*)CCO1; Nva = CCC[C@H](N)C(=O)O

This experiment addresses T1, MHC DR2 (DRB1*1501/DRA*0101) (Homo sapiens, UniProt P01903+P01911).
T1 construct: endogenous in cells; host or cells: EBV homozygous (B lymphoblastoid) cell lines
The experiment can be described thus: HLA II Binding Assay (competition with biotinylated reference peptide). To be noted: purified HLA-DR, biotinylated reference compound for DRB1*1501, 37° C. 24 h to 72 h; read-out: Inhibition of peptide binding IC50 (against MHC DR2 (DRB1*1501/DRA*0101)). The procedure: EBV homozygous cell lines are used as sources of human HLA class II molecules. […] The supernatant from lysed cells after centrifugation (100,000 g for 1 h) is applied to Sepharose 4B and protein A-Sepharose 4B columns and then to the specific antibody column. […] Fractions are immediately neutralized to pH 7 with 2 mM Tris-HCl (pH 6.8) and extensively dialyzed against 1 mM n-dodecyl β-D-maltoside, 150 mM NaCl, 10 mM phosphate (pH 7) buffer.
Samples (100 μl per well) are incubated in 96-wells polypropylene plates at 37° C. for 24 h to 72 h. After neutralization with 50 μl of 450 mM Tris HCl pH 7.5, 0.003% thimerosal, 0.3% BSA, 1 mM n-dodecyl β-D-maltoside buffer, samples are applied to 96-well maxisorp ELISA plates previously coated with 10 μg/ml L243 Mab and saturated with 100 mM Tris HCl pH=7.5, 0.3% BSA, and 0.003% thimerosal buffer. Samples are allowed to bind to the antibody-coated plates for 2 h at room temperature. Bound biotinylated compound is detected by incubating streptavidin-alkaline phosphatase conjugate, and after washings, by the addition of 4-methylumbelliferyl phosphate substrate. […] Maximal binding is determined by incubating the biotinylated peptide with the MHC class II molecule in the absence of competitor. Binding specificity is assessed by adding an excess of non-biotinylated peptide.
In the case of `CC(=O)N[C@H](C(=O)N[C@@H](CCCCN(C)C)C(=O)N1Cc2ccccc2C[C@H]1C(=O)N[C@@H](Cc1ccccc1)C(=O)N1CCCC[C@H]1C(N)=O)C1CCCC1` [Ac(Cpg)(diMeK)(Tic)F(homo Pro)] (Ac-[Gly(cPent)][Lys(Me2)][Tic]F[Pip]-NH2), the IC50 fell in the range of 10 to 100 nM.

In the case of `CC(=O)N[C@H](C(=O)N[C@@H](CCCNC(=N)N)C(=O)N1Cc2ccccc2C[C@H]1C(=O)N[C@@H](Cc1ccccc1)C(=O)N1CCCC[C@H]1C(=O)O)C1CCCC1` [Ac(Cpg)R(Tic)F(homo Pro)COOH] (Ac-[Gly(cPent)]R[Tic]F[Pip]-OH), the IC50 fell in the range of 10 to 100 nM. Under `CO[C@H](C)[C@H](NC(C)=O)C(=O)N[C@H](C(=O)N[C@@H](CCCNC(=N)N)C(=O)N1Cc2ccccc2C[C@H]1C(=O)N[C@@H](Cc1ccccc1)C(N)=O)C1CCCCC1` [Ac(T(OMe))(Chg)R(Tic)F] (Ac-T(Me)[Chg]R[Tic]F-NH2) stands 1 to 10 nM. Turning to `CC(=O)N[C@H](C(=O)N[C@H](C(=O)N[C@@H](CCCNC(=N)N)C(=O)N1Cc2ccccc2C[C@H]1C(=O)N[C@@H](Cc1ccccc1)C(N)=O)C1CCCCC1)[C@@H](C)O` [Ac(Thr)(Chg)R(Tic)F] (Ac-T[Chg]R[Tic]F-NH2), the IC50 lay within 10 to 100 nM. On to `CCC[C@H](NC(C)=O)C(=O)N[C@H](C(=O)N[C@@H](CCCNC(=N)N)C(=O)N1Cc2ccccc2C[C@H]1C(=O)N[C@@H](Cc1ccccc1)C(N)=O)C1CCCCC1` [Ac(nor-V)(Chg)R(Tic)F] (Ac-[Nva][Chg]R[Tic]F-NH2), for which the IC50 was in the range of 1 to 10 nM. Under `CC(=O)N[C@H](C(=O)N[C@H](C(=O)N[C@@H](CCCNC(=N)N)C(=O)N1Cc2ccccc2C[C@H]1C(=O)N[C@@H](Cc1ccccc1)C(N)=O)C1CCCCC1)C(C)(C)C` [Ac(t-BuG)(Chg)R(Tic)F] (Ac-[Tle][Chg]R[Tic]F-NH2) stands 1 to 10 nM; under `CC(=O)N[C@H](C(=O)N[C@H](C(=O)N[C@@H](Cc1c[nH]c(N)n1)C(=O)N1Cc2ccccc2C[C@H]1C(=O)N[C@@H](Cc1ccccc1)C(N)=O)C1CCCCC1)C(C)C` [AcV(Chg)(2-amino His)(Tic)F] (Ac-V[Chg][X8][Tic]F-NH2), 10 to 100 nM. With `CC(=O)N[C@H](C(=O)N[C@H](C(=O)N[C@@H](CCCNC(N)=O)C(=O)N1Cc2ccccc2C[C@H]1C(=O)N[C@@H](Cc1ccccc1)C(N)=O)C1CCCCC1)C(C)C` [AcV(Chg)(Cit)(Tic)F] (Ac-V[Chg][Cit][Tic]F-NH2) the figure was 1 to 10 nM; with `CC(=O)N[C@H](C(=O)N[C@H](C(=O)N[C@@H](CCCCNC(N)=O)C(=O)N1Cc2ccccc2C[C@H]1C(=O)N[C@@H](Cc1ccccc1)C(N)=O)C1CCCCC1)C(C)C` [AcV(Chg)(homo Cit)(Tic)F] (Ac-V[Chg][hCit][Tic]F-NH2), 1 to 10 nM; with `CC(=O)N[C@H](C(=O)N[C@H](C(=O)N[C@@H](C)C(=O)N1Cc2ccccc2C[C@H]1C(=O)N[C@@H](Cc1ccccc1)C(N)=O)C1CCCCC1)C(C)C` [AcV(Chg)A(Tic)F] (Ac-V[Chg]A[Tic]F-NH2), 10 to 100 nM. With `CC(=O)N[C@H](C(=O)N[C@H](C(=O)N[C@@H](Cc1c[nH]cn1)C(=O)N1Cc2ccccc2C[C@H]1C(=O)N[C@@H](Cc1ccccc1)C(N)=O)C1CCCCC1)C(C)C` [AcV(Chg)H(Tic)F] (Ac-V[Chg]H[Tic]F-NH2) the figure was 10 to 100 nM. Turning to `CC(=O)N[C@H](C(=O)N[C@H](C(=O)N[C@@H](CCCNC(=N)N)C(=O)N1[C@H](C(=O)N[C@@H](Cc2ccccc2)C(N)=O)C[C@@H]2CCCC[C@@H]21)C1CCCCC1)C(C)C` [AcV(Chg)R(Oic)F] (Ac-V[Chg]R[Oic]F-NH2), the IC50 was 100 to 1000 nM. As to `CC(=O)N[C@H](C(=O)N[C@H](C(=O)N[C@@H](CCCNC(=N)N)C(=O)N1Cc2ccccc2C[C@H]1C(=O)NCCc1cc2ccccc2[nH]1)C1CCCCC1)C(C)C` [AcV(Chg)R(Tic)(2-ethylaminoindole)] (Ac-V[Chg]R[Tic]-X6), the IC50 lay within 100 to 1000 nM. In the case of `CC(=O)N[C@H](C(=O)N[C@H](C(=O)N[C@@H](CCCNC(=N)N)C(=O)N1Cc2ccccc2C[C@H]1C(=O)N[C@@H](Cc1ccc(Cl)c(Cl)c1)C(N)=O)C1CCCCC1)C(C)C` [AcV(Chg)R(Tic)(3,4-dichloro Phe)] (Ac-V[Chg]R[Tic][Phe(3,4-Cl2)]-NH2), the IC50 was in the range of 1 to 10 nM. For the compound `CC(=O)N[C@H](C(=O)N[C@H](C(=O)N[C@@H](CCCNC(=N)N)C(=O)N1Cc2ccccc2C[C@H]1C(=O)N[C@@H](Cc1cccc2[nH]ncc12)C(N)=O)C1CCCCC1)C(C)C` [AcV(Chg)R(Tic)(4-Indazole)] (Ac-V[Chg]R[Tic][X7]-NH2), the IC50 fell in the range of 1 to 10 nM.

Turning to `CC(=O)N[C@H](C(=O)N[C@H](C(=O)N[C@@H](CCCNC(=N)N)C(=O)N1Cc2ccccc2C[C@H]1C(=O)N[C@@H](Cc1cccc2[nH]cnc12)C(N)=O)C1CCCCC1)C(C)C` [AcV(Chg)R(Tic)(4-benzimidazole)] (Ac-V[Chg]R[Tic][X2]-NH2), the IC50 was 10 to 100 nM.

Turning to `CC(=O)N[C@H](C(=O)N[C@H](C(=O)N[C@@H](CCCNC(=N)N)C(=O)N1Cc2ccccc2C[C@H]1C(=O)NCCc1cccc2[nH]ccc12)C1CCCCC1)C(C)C` [AcV(Chg)R(Tic)(4-ethylaminoindole)] (Ac-V[Chg]R[Tic]-X4), the IC50 is 100 to 1000 nM. With `CC(=O)N[C@H](C(=O)N[C@H](C(=O)N[C@@H](CCCNC(=N)N)C(=O)N1Cc2ccccc2C[C@H]1C(=O)N[C@@H](Cc1ccc(F)cc1)C(N)=O)C1CCCCC1)C(C)C` [AcV(Chg)R(Tic)(4′-F Phe)] (Ac-V[Chg]R[Tic][Phe(4-F)]-NH2) the figure was 1 to 10 nM; with `CC(=O)N[C@H](C(=O)N[C@H](C(=O)N[C@@H](CCCNC(=N)N)C(=O)N1Cc2ccccc2C[C@H]1C(=O)NCCc1ccc2[nH]ccc2c1)C1CCCCC1)C(C)C` [AcV(Chg)R(Tic)(5-ethylaminoindole)] (Ac-V[Chg]R[Tic]-X3), 100 to 1000 nM; with `CC(=O)N[C@H](C(=O)N[C@H](C(=O)N[C@@H](CCCNC(=N)N)C(=O)N1Cc2ccccc2C[C@H]1C(=O)N[C@@H](Cc1c[nH]c2ccccc12)C(N)=O)C1CCCCC1)C(C)C` [AcV(Chg)R(Tic)(Trp)] (Ac-V[Chg]R[Tic]W-NH2), 1 to 10 nM. With `CC(=O)N[C@H](C(=O)N[C@H](C(=O)N[C@@H](CCCNC(=N)N)C(=O)N1Cc2ccccc2C[C@H]1C(=O)NCCc1ccccc1)C1CCCCC1)C(C)C` [AcV(Chg)R(Tic)(phenethylamide)] (Ac-V[Chg]R[Tic]-NHPhenethyl) the figure was 100 to 1000 nM; with `CC(=O)N[C@H](C(=O)N[C@H](C(=O)N[C@@H](CCCNC(=N)N)C(=O)N1Cc2ccccc2C[C@H]1C(=O)NC(Cc1ccc2[nH]c3ccccc3c2c1)C(N)=O)C1CCCCC1)C(C)C` (stereo partly drawn) [AcV(Chg)R(Tic)-(3′-Carbazolyl Ala)] (Ac-V[Chg]R[Tic][X1]-NH2), 100 to 1000 nM; with `CC(=O)N[C@H](C(=O)N[C@H](C(=O)N[C@@H](CCCNC(=N)N)C(=O)N1Cc2ccccc2C[C@H]1C(=O)NC(Cc1cccc2[nH]ccc12)C(N)=O)C1CCCCC1)C(C)C` (stereo partly drawn) [AcV(Chg)R(Tic)-(4′-Indolyl Ala)] (Ac-V[Chg]R[Tic][X5]-NH2), 1 to 10 nM.

Turning to `CC(=O)N[C@H](C(=O)N[C@H](C(=O)N[C@@H](CCCNC(=N)N)C(=O)N1Cc2ccccc2C[C@H]1C(=O)N[C@@H](Cc1ccccc1)C(=O)N1CCOCC1)C1CCCCC1)C(C)C` [AcV(Chg)R(Tic)F-CO(morpholine)] (Ac-V[Chg]R[Tic]F-Morpholide), the IC50 was 10 to 100 nM.

The values are drawn from US20110217324A1, “INHIBITORS OF ANTIGEN PRESENTATION BY MHC CLASS II MOLECULES AND METHODS OF USE THEREOF” (priority 2007, published 2011).
